Where two headings read alike, the source gives them in different places.
How the values were obtained:
[1] = tested on: HVE (Herpes Virus Eidolon); assay: Plaque method, neutralisation of HVE by coupled NP (TCC31 cells); type: cell-based
Description: L'effet des NP couplés (TNP-BSA, DNP-Glycine) a été évalué par la méthode des plages, comme pour le virus de la chorioméningite lymphocytaire dans l'exemple I. L'effet neutralisant des NP couplés a été évalué sur les virus enveloppés ou non enveloppés suivants :
C'est un virus de l'herpès à double brin d'ADN que l'on cultive sur des cellules TCC31 de souris. Les résultats sont observés après 2 Jours de culture.
Pour tous les virus testés, les dilutions des virus donnaient 50 plages/cupule.

Cellules de rate = assay: Proliferation of mouse spleen cells (3H-thymidine incorporation); type: cell-based, souris; conditions: for inhibition at 200 µg/mL: read-out: pourcentage d'augmentation (+) ou d'inhibition (-) de la prolifération
Description: Les anticorps utilisés sont des anticorps monoclonaux (AM) naturels (N5-12, N5-17, MO-1, 62-1, D-23) et proviennent d'hybridomes préparés par fusion des cellules de rate de souris n'ayant reçu aucune immunisation au préalable ni aucune stimulation mitogénique, avec le myélome de souris X63-Ag8. Les hybridomes TNP11 et TNP9 proviennent de fusion des cellules de rate de souris immunisées avec du Ficoll-TNP. Ils ont été maintenus en culture dans le milieu RPMI complet contenant 10% de sérum de veau foetal. Les hybridomes ont été injectés à des souris Balb/c préalablement traitées au pristane dans le but d'obtenir des ascites. Les AM ont été utilisés en tant que surnageants de culture ou en tant qu'ascites ou après isolement par chromatographie d'affinité sur une colonne de DNP-Sépharose. Ces anticorps ont été testés par test immunoenzymatique sur différents antigènes immobilisés sur des plaques de polystyrène et révélés par un anticorps anti-Ig de souris couplé à la β-galactosidase.
Le TNP a été couplé à la sérumalbumine bovine (BSA) par la méthode de Little & Eisen : 1ml de BSA à 20mg/ml dans le tampon carbonate-bicarbonate, 0,1M, pH 9,5, est ajouté à 1ml d'une solution d'acide trinitrobenzène sulfonique à 2 mg/ml dans le même tampon. La réaction est arrêtée après 30 à 120 minutes selon la substitution voulue par élimination de l'excès de réactifs sur échangeur d'ions (Dowex 1 x 4) puis dialyse. Des préparations de BSA substituée avec soit 14 ou 30 molécules de TNP par molécule de BSA (TNP₁₄-BSA ou TNP₃₀-BSA) ont été utilisées.
Le DNP-Glycine (DNP-Gly) et le DNP-Lysine (DNP-Lys) proviennent des Laboratoires Sigma et sont solubilisés directement dans le milieu de culture.
Les cellules proviennent de rate ou de thymus de souris. Les souris sont tuées par dislocation cervicale et leur rate ou leur thymus prélevé stérilement sont déposés dans du milieu RPMI. Les cellules sont dissociées, lavées une fois avec du milieu puis les globules rouges sont lysés au chlorure d'ammonium (0,9%) pendant 1 minute à froid puis les cellules sont relavées dans le milieu complet.
Le milieu de culture utilisé est du RPMI 1640 contenant du sérum de veau foetal (5%), du pyruvate de sodium (1mM), de la L-glutamine (1mM), du 2-mercaptoethanol (0,05 mM), de la pénicilline (100»g/ml) et de la streptomycine (50»g/ml).
2x10⁵ cellules de chaque population cellulaire ou 4x10⁵ de cellules de rate non fractionnées sont distribuées sous un volume final de 200»l dans des boîtes de culture de 96 puits à fond plat en présence ou non des différents stimulateurs (ou mitogènes)(40»g/ml de lipopolysaccharide W Salmonella typhosa 2»g/ml de concanavaline A, ou des surnageants de culture contenant les anticorps monoclonaux à différentes dilutions ou une solution de TNP-BSA à des concentrations finales allant de 200ng à 200»g/ml). Les cultures sont effectuées pendant 48 à 96 heures à 37°C dans une atmosphère de 5% de CO2.
Six à huit heures avant la fin de la culture, 100»l de surnageant sont prélevés de chaque puits de culture afin d'être testés quant à leur contenu en anticorps. 10»l d'une solution de ³H-thymidine (activité spécifique = […]) à 50 »Ci/ml sont ajoutés à la culture qui est ensuite poursuivie. Les cellules de chaque puits sont collectées sur du papier filtre à l'aide d'un collecteur automatique et, après sèchage, les filtres sont comptés dans un liquide scintillant.

[2] = 200µg/ml, LPS* (mitogène ajouté après 48 heures avec le dérivé NP)
[3] = 200µg/ml, conA* (mitogène ajouté après 48 heures avec le dérivé NP)
[4] = 12 (µg/ml), LPS* (mitogène ajouté après 48 heures)
[5] = 12 (µg/ml), conA* (mitogène ajouté après 48 heures)
[6] = 50 (µg/ml), LPS* (mitogène ajouté après 48 heures)
[7] = 50 (µg/ml), conA* (mitogène ajouté après 48 heures)

## O=C(O)CNc1ccc([N+](=O)[O-])cc1[N+](=O)[O-] [DNP-glycine, DNP-Glycine]
[1]; 0,3 mg/ml
  inhibition at 300 µg/mL: 48%
[1]; 0,6 mg/ml
  inhibition at 600 µg/mL: 50%
[1]; 0,07 mg/ml
  inhibition at 70 µg/mL: 28%
[1]; 0,15 mg/ml
  inhibition at 150 µg/mL: 40%
[1]; 1,2 mg/ml
  inhibition at 1200 µg/mL: 57%
[1]; 2,4 mg/ml
  inhibition at 2400 µg/mL: 92%
[1]; 48 h, lowest concentration stated as seroneutralising, virus HVE, read-out: peut séroneutraliser le virus jusqu'à une concentration de
  minimal effective concentration: 600 µg/mL
Cellules de rate; [2]
  inhibition at 200 µg/mL: -60%
Cellules de rate; 200µg/ml, M (milieu seul)
  inhibition at 200 µg/mL: -64%
Cellules de rate; [3]
  inhibition at 200 µg/mL: -50%
Cellules de rate; [4]
  pourcentage d'augmentation (+) ou d'inhibition (-) de la prolifération: 0%
Cellules de rate; 12 (µg/ml), M (milieu seul)
  pourcentage d'augmentation (+) ou d'inhibition (-) de la prolifération: -10%
Cellules de rate; [5]
  pourcentage d'augmentation (+) ou d'inhibition (-) de la prolifération: -30%
Cellules de rate; [6]
  pourcentage d'augmentation (+) ou d'inhibition (-) de la prolifération: -20%
Cellules de rate; 50 (µg/ml), M (milieu seul)
  pourcentage d'augmentation (+) ou d'inhibition (-) de la prolifération: -30%
Cellules de rate; [7]
  pourcentage d'augmentation (+) ou d'inhibition (-) de la prolifération: 0%

## TNP-BSA
[1]; 0,03 mg/ml
  % Inhibition: 0%
[1]; 0,5 mg/ml
  % Inhibition: 55%
[1]; 0,06 mg/ml
  % Inhibition: 5%
[1]; 0,12 mg/ml
  % Inhibition: 16%
[1]; 0,25 mg/ml
  % Inhibition: 35%
[1]; 1,0 mg/ml
  % Inhibition: 79%
Cellules de rate; [2]
  pourcentage d'augmentation (+) ou d'inhibition (-) de la prolifération: +30%
Cellules de rate; 200µg/ml, M (milieu seul)
  pourcentage d'augmentation (+) ou d'inhibition (-) de la prolifération: +50%
Cellules de rate; [3]
  pourcentage d'augmentation (+) ou d'inhibition (-) de la prolifération: +46%
Cellules de rate; [4]
  pourcentage d'augmentation (+) ou d'inhibition (-) de la prolifération: 0%
Cellules de rate; 12 (µg/ml), M (milieu seul)
  pourcentage d'augmentation (+) ou d'inhibition (-) de la prolifération: +10%
Cellules de rate; [5]
  pourcentage d'augmentation (+) ou d'inhibition (-) de la prolifération: +28%
Cellules de rate; [6]
  pourcentage d'augmentation (+) ou d'inhibition (-) de la prolifération: +20%
Cellules de rate; 50 (µg/ml), M (milieu seul)
  pourcentage d'augmentation (+) ou d'inhibition (-) de la prolifération: +30%
Cellules de rate; [7]
  pourcentage d'augmentation (+) ou d'inhibition (-) de la prolifération: +30%

Source: patent EP0316212B1 (priority 1987, dated 1989)
